The source made the active and inactive calls. The rule behind the calls is not given here.
Tested on: in vivo angiogenesis, blood vessel count
Assay: angiogenesis inhibition in living animals, in vivo study, HTS (AID 732);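 note: zebrafish embryos dosed at one day post fertilization; 0% = reference inhibitor and 100% = plate mean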
Conditions: active compounds read low;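 tested at 30 µM in the well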

Row | SMILES | vessel count % control
1 | CCCc1c(OCCCOc2ccc(OCC(=O)O)cc2)ccc(C(C)=O)c1O | 92.9% (inactive)
2 | Cc1nc(N=Nc2ccc(S(=O)(=O)O)cc2S(=O)(=O)O)c(COP(=O)(O)O)c(C=O)c1O | 110% (inactive)
3 | Cc1c(C)c2c(c(C)c1O)CCC(C)(CN1CCN(c3cc(N4CCCC4)nc(N4CCCC4)n3)CC1)O2 (stereo not given) | 99.2% (inactive)
4 | CCCCCC[C@@H]([C@@H](C)O)n1cnc2c(N)ncnc21 | 85.8% (inactive)
5 | COc1ccc2c(c1)c(CC(=O)O)c(C)n2C(=O)c1ccccc1 | 116% (inactive)
6 | COC(=O)[C@@H]1[C@H]2C[C@H]3c4[nH]c5ccccc5c4CCN3C[C@@H]2CC[C@@H]1O | 95.4% (inactive)
7 | C[C@H](Cc1ccc2c(c1)OC(C(=O)O)(C(=O)O)O2)NC[C@H](O)c1cccc(Cl)c1 | 98.2% (inactive)
8 | COc1cc(OC)c(/C=C2/C(=O)Nc3ccccc32)c(OC)c1 | 44.4% (inactive)
9 | CC(C)C(=O)c1c(C(C)C)nn2ccccc12 | 94.7% (inactive)
10 | Ic1ccccc1CNC1C2CCN(CC2)C1C(c1ccccc1)c1ccccc1 (stereo not given) | 103% (inactive)
11 | CC(C)[C@@H]1NC(=O)[C@H](CCCCN)NC(=O)[C@@H](Cc2c[nH]c3ccccc23)NC(=O)[C@H](Cc2ccc(O)cc2)NC(=O)[C@H](C)N(C)C(=O)[C@H](Cc2ccccc2)NC1=O | 101% (inactive)
12 | CNC[C@H](O)c1ccc(O)c(O)c1 | 94% (inactive)
13 | NCCS(=O)O | 107% (inactive)
14 | CCN1/C(=C/C(C)=O)Sc2ccc(OC)cc21 | 98% (inactive)
15 | CC(C)Oc1cccnc1N(C)C1CCN(Cc2ccccc2)CC1 | 98.1% (inactive)
16 | CCN(CC)CCNC(=O)c1cc(Cl)c(N)cc1OC | 99.4% (inactive)
17 | NCC(O)c1ccc(O)cc1 (stereo not given) | 103% (inactive)
18 | NC(N)=NC(=O)c1nc(Cl)c(N2CCCCCC2)nc1N | 119% (inactive)

Row | SMILES | vessel count % control
19 | CC(N)Cc1c[nH]c2ccc(OCc3cccs3)cc12 (stereo not given) | 107% (inactive)
20 | CC1Cc2cc3c(cc2C(c2ccc(N)cc2)=NN1)OCO3 (stereo not given) | 105% (inactive)
21 | CC1(C(=O)O)C2CCC(O2)C1(C)C(=O)O (stereo not given) | 0% (inactive)
22 | Nc1nc2ccc(OC(F)(F)F)cc2s1 | 77% (inactive)
23 | Cc1cccc(C)c1NC1=NCCCS1 | 114% (inactive)
24 | CN1CCC(c2c[nH]c3ccc(O)cc23)CC1 | 95.9% (inactive)
25 | NCCC(=O)NCCc1cnc[nH]1 | 84.2% (inactive)
26 | C[C@]12C[C@H](O)[C@H]3[C@@H](CCC4=CC(=O)CC[C@@]43C)[C@@H]1CC[C@@H]2C(=O)CO | 103% (inactive)
27 | CCCCNC(=O)NS(=O)(=O)c1ccc(C)cc1 | 87.6% (inactive)
28 | COCCCC/C(=N\OCCN)c1ccc(C(F)(F)F)cc1 | 145% (inactive)
29 | C[C@@H]1O[C@@H](O[C@H]2C[C@@H](O)[C@]3(CO)[C@@H]4C(CC[C@]3(O)C2)[C@@]2(O)CC[C@H](C3COC(=O)C3)[C@@]2(C)C[C@H]4O)[C@H](O)[C@H](O)[C@H]1O (stereo not given in full) | 104% (inactive)
30 | C[C@]12C=CC(=O)C=C1CC[C@H]1[C@@H]3C[C@@H](O)[C@](O)(C(=O)CO)[C@@]3(C)C[C@H](O)[C@@]12F | 129% (inactive)
31 | O=c1c(O)c(-c2ccc(O)c(O)c2)oc2cc(O)cc(O)c12 | 115% (inactive)
32 | O=C(Nc1cc(C(=O)Nc2ccc(S(=O)(=O)O)cc2S(=O)(=O)O)cc(C(=O)Nc2ccc(S(=O)(=O)O)cc2S(=O)(=O)O)c1)Nc1cc(C(=O)Nc2ccc(S(=O)(=O)O)cc2S(=O)(=O)O)cc(C(=O)Nc2ccc(S(=O)(=O)O)cc2S(=O)(=O)O)c1 | 118% (inactive)
33 | Nc1ccn([C@H]2CC[C@@H](CO)O2)c(=O)n1 | 103% (inactive)
34 | NCC#Cc1ccccc1 | 107% (inactive)
35 | N=S(=O)(O)Cc1noc2ccccc12 | 88.2% (inactive)

From PubChem BioAssay AID732 (Emory University Molecular Libraries Screening Center, 2007)
